# Measurements reported in article PMC5080911 (Journal of medicinal chemistry, 2016).
# Like-named read-outs stand apart in the source and are kept apart here.
# Experiments:
# tubulin = experiment: Tubulin polymerization assay; details: for effect on tubulin polymerization / time to reach maximum/plateau of tubulin polymerization: 3 µM; for effect on tubulin polymerization: not irradiated; for time to reach maximum/plateau of tubulin polymerization: 37 °C, monitored 1 h; for tubulin polymerization effect of irradiated sample: sample irradiated with far-red light
# [1] = assay type: physicochemical; details: 10 µM in DMEM with 5% FCS, 690 nm
# [2] = Stability of prodrugs in the complete medium under dark conditions; assay type: physicochemical; details: 37 °C, 10 µM, 96 h
# SKOV-3 cells = experiment: Stability of prodrugs with the SKOV-3 cells in the dark; assay type: in vitro ADME; details: 500 nM, 3 day incubation with SKOV-3 cells
# [3] = Solubility in aqueous medium; assay type: physicochemical; details: qualitative
# [4] = 5.6 mW/cm^2, illumination 30 min
SMILES,effect on tubulin polymerization (tubulin),"PTX released from the prodrug ([1]; 5.6 mW/cm^2, illumination 10 min)","PTX released from the prodrug [1, 4]",time to reach maximum/plateau of tubulin polymerization (tubulin),tubulin polymerization effect of irradiated sample (tubulin),decrease (loss) of prodrug in complete medium [2],reduction of recovered prodrug (cells + culture medium) (SKOV-3 cells) [%],solubility in aqueous medium [3]
"COc1ccc(/C=C\c2cc(OC)c(OC)c(OC)c2)cc1O [CA4, Combretastatin A-4, reference compound]",almost completely prevented the polymerization,,,,,,,
CC(=O)O[C@H]1C(=O)[C@@]2(C)[C@H]([C@H](OC(=O)c3ccccc3)[C@]3(O)C[C@H](OC(=O)[C@H](OC(=O)/C=C/N4CCN(CCO[Si]5(OCCN6CCN(/C=C/C(=O)O[C@@H](C(=O)O[C@H]7C[C@@]8(O)[C@@H](OC(=O)c9ccccc9)[C@@H]9[C@]%10(OC(C)=O)CO[C@@H]%10C[C@H](O)[C@@]9(C)C(=O)[C@H](OC(C)=O)C(=C7C)C8(C)C)[C@@H](NC(=O)c7ccccc7)c7ccccc7)CC6)n6c7c8ccccc8c6/N=C6N=C(/N=c8/c9ccccc9/c(n85)=N/C5=NC(=N\7)/c7ccccc75)c5ccccc5\6)CC4)[C@@H](NC(=O)c4ccccc4)c4ccccc4)C(C)=C1C3(C)C)[C@]1(OC(C)=O)CO[C@@H]1C[C@@H]2O [Compound 4],,about 83%,~93%,~ 40 min,significantly increased,less than 7%,4.9,
CC(=O)O[C@H]1C(=O)[C@@]2(C)[C@H](O)C[C@@H]3OC[C@]3(OC(C)=O)[C@@H]2[C@@H](OC(=O)c2ccccc2)[C@]2(O)C[C@@H](OC(=O)[C@@H](OC(=O)CCC(=O)N3CCN(CCO[Si]4(OCCN5CCN(C(=O)CCC(=O)O[C@@H](C(=O)O[C@@H]6C[C@@]7(O)[C@H](OC(=O)c8ccccc8)[C@H]8[C@@]9(OC(C)=O)CO[C@H]9C[C@@H](O)[C@]8(C)C(=O)[C@H](OC(C)=O)C(=C6C)C7(C)C)[C@H](NC(=O)c6ccccc6)c6ccccc6)CC5)n5c6c7ccccc7c5/N=C5N=C(/N=c7/c8ccccc8/c(n74)=N/C4=NC(=N\6)/c6ccccc64)c4ccccc4\5)CC3)[C@H](NC(=O)c3ccccc3)c3ccccc3)C(C)=C1C2(C)C (stereo partly shown) [Compound 5],,,could not detect PTX,~ 40 min,not much change,,3.1,lower solubility in aqueous medium than 4
"CC(=O)O[C@H]1C(=O)[C@@]2(C)[C@H]([C@H](OC(=O)c3ccccc3)[C@]3(O)C[C@H](OC(=O)[C@H](O)[C@@H](NC(=O)c4ccccc4)c4ccccc4)C(C)=C1C3(C)C)[C@]1(OC(C)=O)CO[C@@H]1C[C@@H]2O [PTX, Paclitaxel, reference compound]",the tubulin polymerization was rapid,,,,,,,
